The conditions of series [1]: in acetonitrile; cited from earlier work.
The conditions of series [2]: in acetonitrile; cited from earlier work. The source holds these as a separate data set.
Series [3] concerns the target T1, avidin (Gallus gallus, UniProt P02701).
T1 construct: purchased Molecular Probes (Eugene, Oreg.) A-2767
Description: Time-resolved fluorescence depolarisation on binding of avidin. The settings on record: PBS/5% DMSO. How it is done: Picosecond time-resolved fluorescence measurements are recorded according to the single photon counting technique [Lakowicz, 1983 p 52-93, 112-153, 156-185]. An Ar^+-pumped Ti:Sapphire laser (model MIRA 900, Coherent, Santa Clara, USA) provided under mode-locked conditions ultrashort pulses (FWHM=150 fs) with a frequency of 75 MHz. To reduce the repetition rate to 4.7 MHz, a pulse picker (model 9200, Coherent, Santa Clara, USA) is inserted into the beam. […] Fluorescence photons are collected in a Spex 1681 single grating monochromator (Spex, Edison, USA) and detected with the Hamamatsu R3809U microchannel plate (Hamamatsu, Shimokanzo, Japan). […] The voltage values which correspond to the time passed between excitation and emission of a fluorescence photon in a single experiment are stored in the Spectrum Master 921 (Ortec, Oak Ridge, USA) which is connected to the multichannel emulation program Maestro (Ortec, Oak Ridge, USA). […]
c. Binding of AIDA conjugate 8 to avidin-BODIPY detected by rotational diffusion and energy transfer: Energy transfer between the indazole moiety in 8 and the 3.3 BODIPY-FL lables on avidin by time-resolved fluorescence spectroscopy.
Binding of avidin labelled with BODIPY-FL to 8 creates a further depolarisation mode for the indazole fluorescence: Fluorescence resonance energy transfer between the indazole moiety of 8 and the BODIPY-FL labels. […]

In series [4] the target is T1, avidin. Briefly: FRET / quenching with unlabelled avidin (tryptophan donor, AIDA acceptor). The settings on record: unlabelled avidin, conjugate as acceptor. Format: binding. How it is done: (§1) For solubility reasons, 4e is spectroscopically characterized in THF. All complexation reactions and fluorescence resonance energy transfer measurements are performed in PBS/5% DMSO at 25° C., unless indicated otherwise.
(§2) Spectral bandwidths are set to 8 and 16 nm for excitation and emission, respectively. Measurements are performed at 25° C. in a 750 μL quartz cuvette (10 mm optical pathlength) without stirring after initial mixing. A concentration of 50 nM of 9 or 11 is used for complexation with 1 μM of (fluorescent) avidin. […] All titrations are performed in magic angle setting, with the emission wavelength set to […] in experiments where the indazole is the acceptor, and with an excitation spectrum recorded from 250 nm to 360 nm. In experiments where indazole is used as donor and Lucifer Yellow or BODIPY FL is the acceptor, the excitation wavelength is set to 338 nm or 325 nm. The fluorescence emission is collected between 360 nm and 700 nm. The spectra are corrected for Raman scattering from the PBS solution, for dilution, and for inner filter effects due to protein additions, The signal is adjusted for lamp intensity changes by ratio mode detection with a Rhodamine B quantum counter in the reference channel. A WG 360 emission cutoff filter is used for straylight reduction. Data are collected in 2 nm increments with 1 second integration time.
An emission wavelength at 480 nm was chosen because the tryptophan fluorescence of avidin had almost reached the baseline level at this emission energy, resulting in only minor avidin fluorescence contribution between 250 and 370 nm. […] This quenching effect can be attributed to all radiative and non-radiative processes occurring to 11 in the vicinity of the tryptophans in the binding cleft. Corresponding to the ratio of the negative and positive areas under the fluorescence difference curve (black), 62% of this total quenching effect is fluorescence resonance energy transfer. From 250 to 305 nm the enhancement of the tryptophan and tyrosine fluorescence intensity is 72% based on the sum of 11 and avidin.

The target in series [5] is T2, avidin-BODIPY-FL (Gallus gallus, UniProt P02701).
T2 construct: BODIPY FL (chemical fluorescent label, about 3.3 per avidin); purchased Molecular Probes (Eugene, Oreg.) A-2641
Briefly: FRET / quenching with avidin-BODIPY-FL (AIDA donor, BODIPY-FL acceptor). Type of series: binding. How it is done:
as §1, §2
In these experiments 11 was used as donor and BODIPY-FL as acceptor. At an excitation wavelength of 338 nm the emission of 11 between 360 nm and 516 nm is strongly quenched by approximately 80% in the complexed form. The standard definition for energy transfer efficiency, E=1−Fda/Fd, would result in E≅0.8. […] The approximately 80% reduction in signal intensity of 11 can be caused either by FRET or from local quenching of the fluorescence of 11 mainly by ground state interactions. […] Due to the broad fluorescence emission of 11 in water the detection wavelength can be shifted up to 500 nm which is at lower energy than most background fluorescence signals from small chemical compounds.

A short description of series [6]: UV-Vis absorption spectroscopy. Format: physicochemical. The settings on record: acetonitrile/2% DMSO. How it is done:
UV-Vis absorption spectroscopy is performed on a Cary 1E spectrophotometer. […]
[…] […] From each stock solution, 5 dilutions with concentrations of 2.5 μm, 10 μM, 17 μM, 25 μm and 35 μM are made. UV-spectra of each dilution are recorded from 200 to 400 nm, using a quarz cuvette with a pathlength of 1 cm. […] A linear fit is carried out for each series of measurements. The extinction coefficient ε at 337 nm is given by the slope of the linear regression.

The nature of series [7]: Steady-state fluorescence spectroscopy (excitation and emission spectra). Format: physicochemical. The settings on record: acetonitrile/2% DMSO. How it is done:
Steady-state fluorescence measurements are performed on a SLM 8000C spectro-fluorometer equipped with JD490 photomultipliers and a 450 W Xenon Arclamp (SLM Instruments, Urbana, Ill.).
[…] Spectral bandwidths are set to 1 and 4 nm for excitation and emission, respectively. Spectra are recorded in single photon counting mode. Changes in lamp intensity are corrected with a quantum counter in the reference channel, measured in slow mode. Gain is set to x 100 with a high voltage (HV) of 640 V. Integration time is 2 seconds. For excitation spectra measurements, the emission wavelength is set to 397 nm and the sample is excited from 200 to 400 nm. For recording emission spectra, the sample is excited at 342 nm and the emission is recorded from 350 to 540 nm. The data are averaged over two scans.

T1 sequence (P02701 25-152): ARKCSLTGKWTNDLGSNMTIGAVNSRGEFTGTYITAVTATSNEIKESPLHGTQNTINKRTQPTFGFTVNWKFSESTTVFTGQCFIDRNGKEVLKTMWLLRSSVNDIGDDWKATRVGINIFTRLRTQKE
T2 sequence (P02701 25-152): as above

For `c1ccc2[nH]ncc2c1` [1H-indazole], in series [1], the maximum of absorption is reported as 294 nm. Moreover, the “maximum of fluorescence emission” value in series [2] is given as 298 nm.

As for `NC(=O)c1ccc(-n2nc(-c3ccc(C(=O)NCCCNC(=O)CCCCC4SCC5NC(=O)NC54)cc3)c3ccccc32)cc1` (stereo not drawn) [compound 8, 3′(+)-4-{3-[4-(3′-Biotinoylaminopropyl)-aminocarbonyl]phenyl-1H-indazol-1-yl}-benzoic acid Amide], the “fluorescence depolarisation on binding of avidin (unlabelled)” value in series [3] was “slower depolarisation”. In series [4], the “enhanced energy transfer (tryptophan/indazole)” value was 120% and the “increase in indazole fluorescence emission on avidin complexation” value is on record as 26%. Also, the “quenching of indazole (donor) emission in complex with avidin-BODIPY-FL” value in series [5] (50 nM conjugate, 1 μM avidin-BODIPY-FL, excitation 338 nm, emission 360-516 nm) stood at 93.5%. For the same compound, in series [5] (avidin-BODIPY complex), the “fluoresence energy transfer (acceptor sensitization)” value stood at 48%. In series [6], the “Absorption λmax” value was determined as 331 nm and the “ε (at absorption λmax)” value came to 32158 M⁻¹ cm⁻¹. Besides, in series [7], the “Emission range in parenthesis” value is on record as 360-480 nm, the “Emission λmax” value was determined as 394 nm, the “Excitation range in parenthesis” value is 310-360 nm and the “Excitation λmax” value came to 332 nm.

The values above are taken from patent US20010005752A1, “Fluorescent dyes (AIDA) for solid phase and solution phase screening” (priority 1998, published 2001).
